Data: US20250304811A1, “Ink Jet Ink Composition And Recording Method” (SEIKO EPSON CORPORATION, priority 2024, published 2025)

Test: Solubility in water
Conditions: 20° C., 100 g of water

COCCOC [ethylene glycol dimethyl ether]
miscibility with water: completely miscible with water
